Test results from the supplement of paper PMC10883282.

How the values were obtained:
Assay in all cases: relative viability vs DMSO control (72 h) (fraction); higher = more viable cells
SK-ES-1 = system: SK-ES-1
Method in brief: (§1)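 Sarcoma cell lines in 384-well plates, seeded to reach 80–90% confluence, were given compound after 24 h and kept 72 h at 37 °C, 5% CO2, with 0.1% DMSO vehicle and a 5 µM positive control. Relative viability came from ATPLite as percent growth, averaged over up to triplicate wells. On the rescaled values, 1 equals full and 0 equals none.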

SW872 = system: SW872
Method in brief: as §1

SW1353 = system: SW1353
Method in brief: as §1

SK-LMS-1 = system: SK-LMS-1
Method in brief: as §1

A204 = system: A204
Method in brief: as §1

SW982 = system: SW982
Method in brief: as §1

HS729 = system: HS729
Method in brief: as §1

RD = system: RD
Method in brief: as §1

KHOS-240S = system: KHOS-240S
Method in brief: as §1

VA-ES-BJ = system: VA-ES-BJ
Method in brief: as §1

MES-SA = system: MES-SA
Method in brief: as §1

G401 = system: G401
Method in brief: as §1

Cn1ncnc1[C@H]1c2n[nH]c(=O)c3cc(F)cc(c23)N[C@@H]1c1ccc(F)cc1 [Talazoparib]
Settings	relative viability
A204, 0.00017 µM	0.9664
A204, 0.00051 µM	0.987
A204, 0.00152 µM	0.963
A204, 0.00457 µM	0.932
A204, 0.01372 µM	0.906
A204, 0.04115 µM	0.846
A204, 0.1235 µM	0.715
A204, 0.3704 µM	0.674
A204, 1.111 µM	0.576
A204, 3.333 µM	0.519
A204, 10 µM	0.399
G401, 0.00017 µM	0.95
G401, 0.00051 µM	1.02
G401, 0.00152 µM	0.935
G401, 0.00457 µM	0.937
G401, 0.01372 µM	0.881
G401, 0.04115 µM	0.813
G401, 0.1235 µM	0.764
G401, 0.3704 µM	0.716
G401, 1.111 µM	0.663
G401, 3.333 µM	0.613
G401, 10 µM	0.555
HS729, 0.00017 µM	1.05
HS729, 0.00051 µM	1.05
HS729, 0.00152 µM	1.03
HS729, 0.00457 µM	1.02
HS729, 0.01372 µM	1.02
HS729, 0.04115 µM	1.03
HS729, 0.1235 µM	0.961
HS729, 0.3704 µM	0.949
HS729, 1.111 µM	0.895
HS729, 3.333 µM	0.8536
HS729, 10 µM	0.812
KHOS-240S, 0.00017 µM	0.9825
KHOS-240S, 0.00051 µM	1.01
KHOS-240S, 0.00152 µM	0.982
KHOS-240S, 0.00457 µM	0.969
KHOS-240S, 0.01372 µM	0.948
KHOS-240S, 0.04115 µM	0.921
KHOS-240S, 0.1235 µM	0.872
KHOS-240S, 0.3704 µM	0.824
KHOS-240S, 1.111 µM	0.677
KHOS-240S, 3.333 µM	0.524
KHOS-240S, 10 µM	0.457
MES-SA, 0.00017 µM	0.972
MES-SA, 0.00051 µM	0.975
MES-SA, 0.00152 µM	0.945
MES-SA, 0.00457 µM	0.901
MES-SA, 0.01372 µM	0.768
MES-SA, 0.04115 µM	0.678
MES-SA, 0.1235 µM	0.555
MES-SA, 0.3704 µM	0.478
MES-SA, 1.111 µM	0.392
MES-SA, 3.333 µM	0.351
MES-SA, 10 µM	0.314
RD, 0.00017 µM	0.904
RD, 0.00051 µM	0.945
RD, 0.00152 µM	0.923
RD, 0.00457 µM	0.869
RD, 0.01372 µM	0.842
RD, 0.04115 µM	0.789
RD, 0.1235 µM	0.72
RD, 0.3704 µM	0.718
RD, 1.111 µM	0.629
RD, 3.333 µM	0.586
RD, 10 µM	0.577
SK-ES-1, 0.00017 µM	0.961
SK-ES-1, 0.00051 µM	0.9
SK-ES-1, 0.00152 µM	0.825
SK-ES-1, 0.00457 µM	0.614
SK-ES-1, 0.01372 µM	0.33
SK-ES-1, 0.04115 µM	0.173
SK-ES-1, 0.1235 µM	0.109
SK-ES-1, 0.3704 µM	0.0754
SK-ES-1, 1.111 µM	0.0494
SK-ES-1, 3.333 µM	0.0309
SK-ES-1, 10 µM	0.0277
SK-LMS-1, 0.00017 µM	1.01
SK-LMS-1, 0.00051 µM	1.05
SK-LMS-1, 0.00152 µM	0.999
SK-LMS-1, 0.00457 µM	0.999
SK-LMS-1, 0.01372 µM	0.982
SK-LMS-1, 0.04115 µM	0.956
SK-LMS-1, 0.1235 µM	0.9584
SK-LMS-1, 0.3704 µM	0.874
SK-LMS-1, 1.111 µM	0.833
SK-LMS-1, 3.333 µM	0.795
SK-LMS-1, 10 µM	0.778
SW872, 0.00017 µM	1.02
SW872, 0.00051 µM	1.04
SW872, 0.00152 µM	1.04
SW872, 0.00457 µM	1.01
SW872, 0.01372 µM	0.99
SW872, 0.04115 µM	0.971
SW872, 0.1235 µM	0.905
SW872, 0.3704 µM	0.799
SW872, 1.111 µM	0.628
SW872, 3.333 µM	0.441
SW872, 10 µM	0.34
SW982, 0.00017 µM	0.911
SW982, 0.00051 µM	0.906
SW982, 0.00152 µM	0.904
SW982, 0.00457 µM	0.862
SW982, 0.01372 µM	0.785
SW982, 0.04115 µM	0.729
SW982, 0.1235 µM	0.615
SW982, 0.3704 µM	0.602
SW982, 1.111 µM	0.499
SW982, 3.333 µM	0.409
SW982, 10 µM	0.361
SW1353, 0.00017 µM	1.06
SW1353, 0.00051 µM	1.09
SW1353, 0.00152 µM	1.07
SW1353, 0.00457 µM	1.03
SW1353, 0.01372 µM	0.999
SW1353, 0.04115 µM	0.919
SW1353, 0.1235 µM	0.889
SW1353, 0.3704 µM	0.814
SW1353, 1.111 µM	0.753
SW1353, 3.333 µM	0.679
SW1353, 10 µM	0.633
VA-ES-BJ, 0.00017 µM	1.01
VA-ES-BJ, 0.00051 µM	1.01
VA-ES-BJ, 0.00152 µM	1.01
VA-ES-BJ, 0.00457 µM	0.955
VA-ES-BJ, 0.01372 µM	0.926
VA-ES-BJ, 0.04115 µM	0.849
VA-ES-BJ, 0.1235 µM	0.738
VA-ES-BJ, 0.3704 µM	0.601
VA-ES-BJ, 1.111 µM	0.406
VA-ES-BJ, 3.333 µM	0.225
VA-ES-BJ, 10 µM	0.163
